# Measured values taken from patent publication US20250073240A1, “NEW TREATMENT” (Verona Pharma PLC, priority 2023, published 2025).
# Experiments:
# Assay type in all cases: in vivo, human
# [1] = test system: patients with symptomatic, moderate-to-severe COPD; assay: Pooled analysis of two phase 3 trials (Example 2): moderate/severe exacerbation rate and time to first exacerbation
# [2] = test system: patients with moderate to severe COPD; assay: Phase 3 clinical study (Example 1): safety assessment, risk of pneumonia; details: patients with blood eosinophil count <300 cells/μL
# Procedure: (§1) A clinical study was conducted to determine the efficacy of ensifentrine in treating COPD compared with placebo. Ensifentrine was administered by nebuliser at a dose of 3 mg twice daily (BID) for 24 weeks. The study was a multi-centre, randomized, double-blind, parallel-group, placebo-controlled trial with around 800 patients and 5:3 randomization.
# (§2) The study population included patients aged 40-80 years with moderate to severe COPD (FEV1 30%-70% p.n., FEV1/forced vital capacity (FVC) ratio <0.7, with mMRC≥2). The randomization stratified (a) the use of stable background maintenance LAMA or LABA therapy use (approx. 50%. yes or no) and (b) cigarette smoking (current or former). Inhaled corticosteroid (ICS) maintenance therapy was permitted in up to 20% of patients under certain provisions.
# [3] = test system: patients with moderate to severe COPD; assay: Phase 3 clinical study (Example 1): moderate/severe COPD exacerbations, by blood eosinophil count
# Procedure: as §1, §2
# (§3) The primary endpoint of the study was change from baseline in average FEV1 area under the curve (AUC)0-12 h post-dose at week 12. Secondary endpoints of the study included: frequency of moderate/severe COPD exacerbations over 24 Weeks; time to first moderate/severe COPD exacerbation; and effect of blood eosinophil count of patients.
# Exacerbations were defined as worsening of 2 or more major symptoms (dyspnea, sputum volume, and sputum purulence) or worsening of any 1 major symptom together with any 1 of the following minor symptoms: sore throat, colds, fever without other cause, and increased cough or wheeze for at least 2 consecutive days. COPD exacerbations were considered to be of moderate severity if treatment with systemic corticosteroids and/or antibiotics was required and were considered to be severe if hospitalization was required.
# The blood eosinophil count of patients was determined as follows. • A blood sample (2 mL) was collected in 2 mL EDTA tube and mixed immediately using gentle inversion 8-10 times. • Eosinophils were tested as part of the Complete Blood Count (CBC) test panel and are part of the White Blood Cell (WBC) differential. • Testing was performed on the Beckman Coulter DxH 800, with testing performed daily on ambient samples. • The haematology parameters that constitute the CBC panel were produced using methods and technologies within the DxH800, including Coulter principle and VCSn laser flow cell technology. • The WBC differential was obtained using VCSn technology (Volume, Conductivity and Scatter) based on simultaneous measuring of cell volume, high frequency conductivity and laser light scatter. This produced an automated WBC differential. • During analysis, if any parameter was abnormal or outside established limits the instrument flagged this as abnormal and produced a stained blood slide. • Blood film review was completed using manual microscopy and a technician confirmed any abnormal findings. • The technician could have also provided a manual WBC differential during blood film review or confirm the automated WBC differential. • Finalised results were then provided.
# (§4) The investigational product and placebo were provided in 2.5 mL unit dose format in an ampule and administered via a nebuliser.
# [4] = test system: patients with moderate to severe COPD; assay: Phase 3 clinical study (Example 1): lung function, average FEV1 AUC0-12h
# Procedure: as §1, §2, §3
# Baseline FEV1 is the mean of the two measurements taken before study medication on the day of first dosing, i.e. <40 minutes and just prior to dosing, both pre-dose on day 1.
# Average FEV1 AUC0-12 h is defined as area under the curve over 12 hours of the FEV1, divided by 12 hours.
# as §4
# [5] = Blood eosinophils < 100 cells/μL (n = 10)
# [6] = Blood eosinophils ≥ 100 cells/μL (n = 74)
# [7] = Blood eosinophils > 150 cells/μL (n = 445)
# [8] = Blood eosinophils ≤ 150 cells/μL (n = 343)
smiles,measurement,setting,value
"COc1cc2c(cc1OC)-c1c/c(=N\c3c(C)cc(C)cc3C)n(CCNC(N)=O)c(=O)n1CC2 [Ensifentrine, N-(2-{(2E)-9,10-dimethoxy-4-oxo-2-[(2,4,6-trimethylphenyl)imino]-6,7-dihydro-2H-pyrimido[6,1-a]isoquinolin-3(4H)-yl}ethyl)urea]","Hazard Ratio (95% Confidence Interval), time to first moderate/severe exacerbation",[1]; [5],"0.52 (0.22, 1.24)"
same,"Rate Ratio (95% Confidence Interval), moderate/severe exacerbation",[1]; [5],"0.50 (0.22, 1.17)"
same,"Hazard Ratio (95% Confidence Interval), time to first moderate/severe exacerbation",[1]; Blood eosinophils < 300 cells/μL (n = 60),"0.53 (0.37, 0.76)"
same,"Rate Ratio (95% Confidence Interval), moderate/severe exacerbation",[1]; Blood eosinophils < 300 cells/μL (n = 65),"0.53 (0.37, 0.75)"
same,"Hazard Ratio (95% Confidence Interval), time to first moderate/severe exacerbation",[1]; [6],"0.60 (0.43, 0.83)"
same,"Rate Ratio (95% Confidence Interval), moderate/severe exacerbation",[1]; [6],"0.60 (0.43, 0.84)"
same,"Hazard Ratio (95% Confidence Interval), time to first moderate/severe exacerbation",[1]; Blood eosinophils ≥ 300 cells/μL (n = 24),"0.79 (0.43, 1.45)"
same,"Rate Ratio (95% Confidence Interval), moderate/severe exacerbation",[1]; Blood eosinophils ≥ 300 cells/μL (n = 29),"0.82 (0.45, 1.51)"
same,reduction in exacerbation rate,[1]; blood eosinophil counts <100 cells/μL,about 50%
same,reduction in exacerbation rate,[1]; blood eosinophil counts ≤300 cells/μL,about 47%
same,number needed to treat (NNT) for the prevention of 1 exacerbation annually,[1]; pooled population,6.25 patients
same,reduction in the moderate/severe exacerbation rate compared with placebo,"[1]; pooled population, 3 mg BID over 24 weeks",41%
same,"reduction in risk (Cox proportional hazards model), time to first moderate/severe exacerbation","[1]; pooled population, 24 weeks",41%
same,"rate ratio, moderate/severe exacerbation rate","[1]; pooled population, 24 weeks, 95% CI 0.43-0.80",0.59
same,"hazard ratio, time to first moderate/severe exacerbation","[1]; pooled population, 24 weeks, 95% CI 0.44-0.81",0.59
same,time to first moderate/severe exacerbation compared with placebo,"[1]; pooled population, over 24 weeks, log rank test P=0.001",significantly delayed
same,transition from lower to higher exacerbation risk (group B to group E) compared with placebo,"[1]; post hoc analysis, 24 weeks",numerically delayed
same,risk of pneumonia,[2],no significant increase
same,Exacerbation Rate Reduction,[3]; [7],43%
same,"Rate Ratio (95% Confidence Interval), COPD exacerbations",[3]; [7],"0.57 (0.34, 0.97)"
same,Exacerbation Rate Reduction,[3]; [8],42%
same,"Rate Ratio (95% Confidence Interval), COPD exacerbations",[3]; [8],"0.58 (0.30, 1.14)"
same,reduction in relative risk of moderate or severe COPD exacerbation vs placebo,"[3]; all patients, 3 mg BID, 24 weeks",approximately 40%
same,reduction in relative risk of moderate or severe COPD exacerbation vs placebo,[3]; subgroup blood eosinophil count <150 cells/μL,around 40%
same,reduction in relative risk of moderate or severe COPD exacerbation vs placebo,[3]; subgroup blood eosinophil count <300 cells/μL,around 50%
same,"Average FEV1 (AUC)0-12 h post-dose at Week 12: Change from Baseline, CFB Least Squares Mean (95% CI)","[4]; 3 mg BID by nebuliser, week 12, n = 498","48.2 (30.0, 66.5) mL"
same,Average FEV1 (AUC)0-12 h post-dose at Week 12: Placebo-corrected CFB LS Mean Diff (95% CI),"[4]; 3 mg BID by nebuliser, week 12, vs placebo","93.9 (64.5, 123.3) mL"
same,improvement in lung function,"[4]; all subgroups, 3 mg BID",statistically significant
